Laboratory results as given in US11319299B2, “Substituted carboxamides as inhibitors of WDR5 protein-protein binding” (PROPELLON THERAPEUTICS INC., priority 2016, dated 2022).

Biological target: WDR5 (Homo sapiens (Human), UniProt P61964)
Assay: Surface Plasmon Resonance (SPR) assay, KD and residence time
Format: binding
Conditions: surface plasmon resonance (SPR); read-out: WDR5 binding affinity (KD)

Compound	Kd
C[C@@H]1CN(c2cc(F)c(-c3nc(C(=O)N4CCN(C)CC4)cs3)cc2NC(=O)c2c[nH]c(=O)cc2C(F)(F)F)C[C@H](C)N1C [Example 487, N-[4-fluoro-5-[4-(4-methylpiperazine-1-carbonyl)-1,3-thiazol-2-yl]-2-[(3R,5S)-3,4,5-trimethylpiperazin-1-yl]phenyl]-6-oxo-4-(trifluoromethyl)-1H-pyridine-3-carboxamide]	2.81 nM
C[C@@H]1CN(c2cc(F)c(C3=CCN(C(=O)OC4(C)COC4)CC3)cc2NC(=O)c2c[nH]c(=O)cc2C(F)(F)F)C[C@H](C)N1C [Example 488, (3-methyloxetan-3-yl) 4-[2-fluoro-5-[[6-oxo-4-(trifluoromethyl)-1H-pyridine-3-carbonyl]amino]-4-[(3R,5S)-3,4,5-trimethylpiperazin-1-yl]phenyl]-3,6-dihydro-2H-pyridine-1-carboxylate]	4.87 nM
C[C@@H]1CN(c2cc(F)c(C3=CCCN(C(=O)OC4(C)COC4)C3)cc2NC(=O)c2c[nH]c(=O)cc2C(F)(F)F)C[C@H](C)N1C [Example 489, (3-methyloxetan-3-yl) 5-[2-fluoro-5-[[6-oxo-4-(trifluoromethyl)-1H-pyridine-3-carbonyl]amino]-4-[(3R,5S)-3,4,5-trimethylpiperazin-1-yl]phenyl]-3,6-dihydro-2H-pyridine-1-carboxylate]	2.74 nM
C[C@@H]1CN(c2cc(F)c(C3=CCN(C(=O)OC4(C)COC4)C3)cc2NC(=O)c2c[nH]c(=O)cc2C(F)(F)F)C[C@H](C)N1C [Example 490, (3-methyloxetan-3-yl) 3-[2-fluoro-5-[[6-oxo-4-(trifluoromethyl)-1H-pyridine-3-carbonyl]amino]-4-[(3R,5S)-3,4,5-trimethylpiperazin-1-yl]phenyl]-2,5-dihydropyrrole-1-carboxylate]	3.24 nM
C[C@@H]1CN(c2cc(F)c(-c3ccc(CN4CCOCC4)s3)cc2NC(=O)c2c[nH]c(=O)cc2C(F)(F)F)C[C@H](C)N1C [Example 491, N-[4-fluoro-5-[5-(morpholin-4-ylmethyl)thiophen-2-yl]-2-[(3R,5S)-3,4,5-trimethylpiperazin-1-yl]phenyl]-6-oxo-4-(trifluoromethyl)-1H-pyridine-3-carboxamide]	3.59 nM
C[C@@H]1CN(c2cc(F)c(-c3cccs3)cc2NC(=O)c2c[nH]c(=O)cc2C(F)(F)F)C[C@H](C)N1C [Example 492, N-[4-fluoro-2-[(3R,5S)-3,4,5-trimethylpiperazin-1-yl]-5-thiophen-2-ylphenyl]-6-oxo-4-(trifluoromethyl)-1H-pyridine-3-carboxamide]	3.35 nM
C[C@@H]1CN(c2cc(F)c(-c3ccsc3)cc2NC(=O)c2c[nH]c(=O)cc2C(F)(F)F)C[C@H](C)N1C [Example 493, N-[4-fluoro-2-[(3R,5S)-3,4,5-trimethylpiperazin-1-yl]-5-thiophen-3-ylphenyl]-6-oxo-4-(trifluoromethyl)-1H-pyridine-3-carboxamide]	2.86 nM
C[C@@H]1CN(c2cc(F)c(-c3csc(CN4CCOCC4)c3)cc2NC(=O)c2c[nH]c(=O)cc2C(F)(F)F)C[C@H](C)N1C [Example 494, N-[4-fluoro-5-[5-(morpholin-4-ylmethyl)thiophen-3-yl]-2-[(3R,5S)-3,4,5-trimethylpiperazin-1-yl]phenyl]-6-oxo-4-(trifluoromethyl)-1H-pyridine-3-carboxamide]	3.01 nM
C[C@@H]1CN(c2cc(F)c(-c3ncc(C(=O)NCC4CC4)s3)cc2NC(=O)c2c[nH]c(=O)cc2C(F)(F)F)C[C@H](C)N1C [Example 496, N-(cyclopropylmethyl)-2-[2-fluoro-5-[[6-oxo-4-(trifluoromethyl)-1H-pyridine-3-carbonyl]amino]-4-[(3R,5S)-3,4,5-trimethylpiperazin-1-yl]phenyl]-1,3-thiazole-5-carboxamide]	3.03 nM
C[C@@H]1CN(c2cc(F)c(-c3ncc(C(=O)N(C)CC4CC4)s3)cc2NC(=O)c2c[nH]c(=O)cc2C(F)(F)F)C[C@H](C)N1C [Example 497, N-(cyclopropylmethyl)-2-[2-fluoro-5-[[6-oxo-4-(trifluoromethyl)-1H-pyridine-3-carbonyl]amino]-4-[(3R,5S)-3,4,5-trimethylpiperazin-1-yl]phenyl]-N-methyl-1,3-thiazole-5-carboxamide]	2.59 nM
C[C@@H]1CN(c2cc(F)c(-c3ncc(C(=O)NC4CCCCC4)s3)cc2NC(=O)c2c[nH]c(=O)cc2C(F)(F)F)C[C@H](C)N1C [Example 498, N-cyclohexyl-2-[2-fluoro-5-[[6-oxo-4-(trifluoromethyl)-1H-pyridine-3-carbonyl]amino]-4-[(3R,5S)-3,4,5-trimethylpiperazin-1-yl]phenyl]-1,3-thiazole-5-carboxamide]	1.47 nM
C[C@@H]1CN(c2cc(F)c(-c3ncc(C(=O)N(C)C4CCCCC4)s3)cc2NC(=O)c2c[nH]c(=O)cc2C(F)(F)F)C[C@H](C)N1C [Example 499, N-cyclohexyl-2-[2-fluoro-5-[[6-oxo-4-(trifluoromethyl)-1H-pyridine-3-carbonyl]amino]-4-[(3R,5S)-3,4,5-trimethylpiperazin-1-yl]phenyl]-N-methyl-1,3-thiazole-5-carboxamide]	3.4 nM
C[C@@H]1CN(c2cc(F)c(-c3ncc(C(=O)N4CCOCC4)s3)cc2NC(=O)c2c[nH]c(=O)cc2C(F)(F)F)C[C@H](C)N1C [Example 500, N-[4-fluoro-5-[5-(morpholine-4-carbonyl)-1,3-thiazol-2-yl]-2-[(3R,5S)-3,4,5-trimethylpiperazin-1-yl]phenyl]-6-oxo-4-(trifluoromethyl)-1H-pyridine-3-carboxamide]	1.85 nM
C[C@@H]1CN(c2cc(F)c(-c3ncc(C(=O)N4CCN(C)CC4)s3)cc2NC(=O)c2c[nH]c(=O)cc2C(F)(F)F)C[C@H](C)N1C [Example 501, N-[4-fluoro-5-[5-(4-methylpiperazine-1-carbonyl)-1,3-thiazol-2-yl]-2-[(3R,5S)-3,4,5-trimethylpiperazin-1-yl]phenyl]-6-oxo-4-(trifluoromethyl)-1H-pyridine-3-carboxamide]	3.44 nM
C[C@@H]1CN(c2cc(F)c(-c3cnc(N4CCOCC4)nc3)cc2NC(=O)c2cc(N)c(F)cc2C(F)(F)F)C[C@H](C)N1C [Example 502, 5-amino-4-fluoro-N-[4-fluoro-5-(2-morpholin-4-ylpyrimidin-5-yl)-2-[(3R,5S)-3,4,5-trimethylpiperazin-1-yl]phenyl]-2-(trifluoromethyl)benzamide]	1.15 nM
C[C@@H]1CN(c2cc(F)c(C3=CCN(c4ccc(C5CC5)nn4)CC3)cc2NC(=O)c2c[nH]c(=O)cc2C(F)(F)F)C[C@H](C)N1C [Example 503, N-[5-[1-(6-cyclopropylpyridazin-3-yl)-3,6-dihydro-2H-pyridin-4-yl]-4-fluoro-2-[(3R,5S)-3,4,5-trimethylpiperazin-1-yl]phenyl]-6-oxo-4-(trifluoromethyl)-1H-pyridine-3-carboxamide]	2.44 nM
CCc1ccc(N2CC=C(c3cc(NC(=O)c4c[nH]c(=O)cc4C(F)(F)F)c(N4C[C@@H](C)N(C)[C@@H](C)C4)cc3F)CC2)nn1 [Example 504, N-[5-[1-(6-ethylpyridazin-3-yl)-3,6-dihydro-2H-pyridin-4-yl]-4-fluoro-2-[(3R,5S)-3,4,5-trimethylpiperazin-1-yl]phenyl]-6-oxo-4-(trifluoromethyl)-1H-pyridine-3-carboxamide]	2.44 nM
COc1cc(C(F)(F)F)c(C(=O)Nc2cc(-c3cnc(N4CCOCC4)nc3)c(F)cc2N2C[C@@H](C)N(C)[C@@H](C)C2)cn1 [Example 506, N-[4-fluoro-5-(2-morpholin-4-ylpyrimidin-5-yl)-2-[(3R,5S)-3,4,5-trimethylpiperazin-1-yl]phenyl]-6-methoxy-4-(trifluoromethyl)pyridine-3-carboxamide]	354 nM
C[C@@H]1CN(c2ccc(-c3cc(NC(=O)c4c[nH]c(=O)cc4C(F)F)c(N4CCN(C)[C@@H](C)C4)cc3F)cn2)CCO1 [Example 509, 4-(difluoromethyl)-N-[4-fluoro-2-[(3S)-3,4-dimethylpiperazin-1-yl]-5-[6-[(2R)-2-methylmorpholin-4-yl]pyridin-3-yl]phenyl]-6-oxo-1H-pyridine-3-carboxamide]	0.947 nM
C[C@@H]1CN(c2ccc(-c3cc(NC(=O)c4c[nH]c(=O)cc4C(F)F)c(N4C[C@@H](C)N(C)[C@@H](C)C4)cc3F)cn2)C[C@H](C)O1 [Example 511, 4-(difluoromethyl)-N-[4-fluoro-5-[6-[(2R,6S)-2,6-dimethylmorpholin-4-yl]pyridin-3-yl]-2-[(3R,5S)-3,4,5-trimethylpiperazin-1-yl]phenyl]-6-oxo-1H-pyridine-3-carboxamide]	0.779 nM
C[C@@H]1CN(c2ccc(-c3cc(NC(=O)c4c[nH]c(=O)cc4C(F)F)c(N4CCN(C)[C@@H](C)C4)cc3F)cn2)C[C@H](C)O1 [Example 514, 4-(difluoromethyl)-N-[4-fluoro-5-[6-[(2R,6S)-2,6-dimethylmorpholin-4-yl]pyridin-3-yl]-2-[(3S)-3,4-dimethylpiperazin-1-yl]phenyl]-6-oxo-1H-pyridine-3-carboxamide]	0.959 nM
C[C@@H]1CN(c2ccc(-c3cc(NC(=O)c4cn(C)c(=O)cc4C(F)F)c(N4CCN(C)[C@@H](C)C4)cc3F)cn2)C[C@H](C)O1 [Example 515, 4-(difluoromethyl)-N-[4-fluoro-5-[6-[(2R,6S)-2,6-dimethylmorpholin-4-yl]pyridin-3-yl]-2-[(3S)-3,4-dimethylpiperazin-1-yl]phenyl]-1-methyl-6-oxopyridine-3-carboxamide]	4.09 nM
C[C@@H]1CN(c2ccc(-c3cc(NC(=O)c4cn(C)c(=O)cc4C(F)F)c(N4CCN(C)[C@@H](C)C4)cc3F)cn2)CCO1 [Example 516, 4-(difluoromethyl)-N-[4-fluoro-2-[(3S)-3,4-dimethylpiperazin-1-yl]-5-[6-[(2R)-2-methylmorpholin-4-yl]pyridin-3-yl]phenyl]-1-methyl-6-oxopyridine-3-carboxamide]	4 nM
C[C@@H]1CN(c2cc(F)c(-c3csc(C(=O)NCC4CC4)n3)cc2NC(=O)c2cn(C)c(=O)cc2C(F)(F)F)C[C@H](C)N1C [Example 523, N-(cyclopropylmethyl)-4-[2-fluoro-5-[[1-methyl-6-oxo-4-(trifluoromethyl)pyridine-3-carbonyl]amino]-4-[(3R,5S)-3,4,5-trimethylpiperazin-1-yl]phenyl]-1,3-thiazole-2-carboxamide]	4.59 nM
